In patent EP1352977A2, “Novel Desulfitobacterium strain for the degradation of chloroalkenes” (UNIVERSITEIT GENT, priority 2002, dated 2003):
Entries after “also recorded” stand apart in the source; their conditions may differ.

What was measured:
Format in all cases: cell-based, Desulfitobacterium dichloroeliminans strain DCA1
[1] = test system: Desulfitobacterium strain DCA1; test: Inhibition of 1,2-DCA dechlorination / toxicity to strain DCA1
[2] = test system: Desulfitobacterium strain DCA1; test: Growth of strain DCA1 on other electron acceptors; settings: for growth in the presence of electron acceptor: 3mM, electron donors lactate and H2
[3] = test system: Desulfitobacterium strain DCA1; test: Substrate range determination: growth on and dechlorination product from chlorinated substrates

Question: `O=NO` [NO2^-] was tested. Which “inhibition of the dechlorination” value ([1]; 2.5 mM) did it give?
Answer: Its value is “fully inhibited”.

Question: What about the “conversion as electron acceptors” value [2] of the same compound?
Answer: The value was “not converted”.

Question: For `ClC(Cl)Cl` [Chloroform, reference compound], which inhibition at 50 µM ([1]; Desulfitobacterium dichloroeliminans, DCA1, read-out: inhibition of the dechlorination of 1,2-DCA) is on record?
Answer: Its inhibition at 50 µM is under 50%.

Question: With `OCC(Cl)CCl` (stereo not drawn) [2,3-DC-propanol] as the compound, how does the “dechlorination reaction” value [3] read?
Answer: Its value is “no dechlorination reaction was observed”.

Question: For `CCC(Cl)CCl` (stereo not drawn) [1,2-DCB, 1,2-dichlorobutane], which “growth of strain DCA1” value [3] is on record?
Answer: The value was “sustained growth”.

Question: `CC(Cl)C(C)Cl` [D-2,3-DCB, D-2,3-dichlorobutane] was tested. Which “growth of strain DCA1” value [3] did it give?
Answer: Its value is “sustained growth”.

Question: Which “dechlorination reaction” value [3] does the source give for `O=C(O)[C@@H](Br)[C@@H](Br)C(=O)O` [meso-2,3-dibromosuccinate] here?
Answer: Its value is “no dechlorination reaction was observed”.

Question: `CCCI` [Propyliodide, reference compound] was tested. Which “inhibition of the dechlorination” value ([1]; 50 µM, in the dark, light reversible) did it give?
Answer: Its value is “fully inhibited”.

Question: With `O=O` [O2] as the compound, how does the “conversion as electron acceptors” value [2] read?
Answer: Its value is “not converted”.

Question: Which “conversion as electron acceptors” value [2] does the source give for `O=S(=O)(O)O` [SO4^2-] here?
Answer: Its value is “not converted”.

Question: With `O=[N+]([O-])O` [NO3^-] as the compound, how does the “growth in the presence of electron acceptor” value (shortened to “growth in the presence”) [2] read?
Answer: The value was “grew”.

Question: How did the “dechlorination reaction” value [3] turn out when `Cl[C@H]1[C@H](Cl)[C@@H](Cl)[C@@H](Cl)[C@H](Cl)[C@H]1Cl` [lindane] was run?
Answer: Its value is “no dechlorination reaction was observed”.

Question: For `O=C(O)/C=C/C(=O)O` [Fumarate], which “toxicity to strain DCA1” value [1] is on record?
Answer: The value was “not toxic”.

Question: What about the “conversion as electron acceptors” value [2] of the same compound?
Answer: The value was “not converted”.

Question: With `C[C@H](Cl)[C@@H](C)Cl` [meso-2,3-DCB, meso-2,3-dichlorobutane] as the compound, how does the “growth of strain DCA1” value [3] read?
Answer: Its value is “sustained growth”.

Question: With `CC(Cl)C(C)Cl` [L-2,3-DCB, L-2,3-dichlorobutane] as the compound, how does the “growth of strain DCA1” value [3] read?
Answer: Its value is “sustained growth”.

Question: How did the “growth of strain DCA1” value [3] turn out when `ClCC(Cl)Cl` [1,1,2-TCA, 1,1,2-trichloroethane] was run?
Answer: The value was “sustained growth; also recorded: supported growth”.

Question: `O=S(O)(O)=S` [S2O3^2-] was tested. Which “growth in the presence” value [2] did it give?
Answer: The value was “grew”.

Question: How did the “dechlorination reaction” value [3] turn out when `ClCC(Cl)CCl` [1,2,3-trichloropropane] was run?
Answer: Its value is “no dechlorination reaction was observed”.

Question: Which “growth of strain DCA1” value [3] does the source give for `CC(Cl)CCl` (stereo not drawn) [1,2-dichloropropane] here?
Answer: Its value is “sustained growth”.

Question: `O=S(O)O` [SO3^2-] was tested. Which “growth in the presence” value [2] did it give?
Answer: Its value is “grew”.
